Data published in patent US20080153896A1, “Polymorphic Forms of an HMG-CoA Reductase Inhibitor and Uses Thereof” (priority 2006, published 2008).

Test: Stability (integrity) testing of amorphous and polymorphic form under storage conditions, RP-HPLC
Assay type: physicochemical
Parameters: key to Impurity RRT 0.738 / Impurity RRT 0.949 / Impurity RRT 1.050 / Impurity RRT 1.550 / Impurity RRT 0.136 / Impurity RRT 0.720 / Impurity RRT 0.706 / Impurity RRT 1.18 / Impurity RRT 1.826: % of total UV absorption (HPLC peak area); Impurity RRT 1.104 / Impurity RRT 1.698: unit not given beside the values
Details: Batch 3 PP00205
How it was run: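 Amorphous form and three batches of polymorphic Form I of the hemi calcium salt were stored under different atmospheric conditions. Purity measured by RP-HPLC on C18 with UV detection, drug as percent of total absorption; total impurity from summed impurity peak areas, impurities identified by relative retention time.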

Impurity RRT 1.045 (25° C./60% RH 12M): 0.344
Impurity RRT 1.095 (25° C./60% RH 12M): 0.165
Impurity RRT 1.449 (25° C./60% RH 12M): 0.195
Impurity RRT 1.596 (25° C./60% RH 12M): 0.086
Impurity RRT 1.640 (25° C./60% RH 12M): 0.052
Impurity RRT 1.698 (25° C./60% RH 12M): 0.061
Total Impurity (25° C./60% RH 12M): 1.506
Water (25° C./60% RH 12M): 5.57 % W/W
Assay (30° C./65% RH 1M): 98.21 % W/W
Description (30° C./65% RH 1M): White
Highest Impurity (30° C./65% RH 1M): 0.449
Impurity RRT 0.935 (30° C./65% RH 1M): 0.449
Impurity RRT 1.045 (30° C./65% RH 1M): 0.385
Impurity RRT 1.095 (30° C./65% RH 1M): 0.162
Impurity RRT 1.44 (30° C./65% RH 1M): 0.234
Impurity RRT 1.590 (30° C./65% RH 1M): 0.102
Impurity RRT 1.640 (30° C./65% RH 1M): 0.071
Impurity RRT 1.698 (30° C./65% RH 1M): 0.072
Total Impurity (30° C./65% RH 1M): 1.495
Water (30° C./65% RH 1M): 4.47 % W/W
Assay (30° C./65% RH 2M): 98.27 % W/W
Description (30° C./65% RH 2M): White
Highest Impurity (30° C./65% RH 2M): 0.416
Impurity RRT 0.935 (30° C./65% RH 2M): 0.416
Impurity RRT 1.045 (30° C./65% RH 2M): 0.362
Impurity RRT 1.095 (30° C./65% RH 2M): 0.163
Impurity RRT 1.18 (30° C./65% RH 2M): 0.048
Impurity RRT 1.44 (30° C./65% RH 2M): 0.216
Impurity RRT 1.590 (30° C./65% RH 2M): 0.100
Impurity RRT 1.640 (30° C./65% RH 2M): 0.063
Impurity RRT 1.698 (30° C./65% RH 2M): 0.062
Total Impurity (30° C./65% RH 2M): 1.43
Water (30° C./65% RH 2M): 4.59 % W/W
Assay (30° C./65% RH 3M): 98.21 % W/W
Description (30° C./65% RH 3M): White
Highest Impurity (30° C./65% RH 3M): 0.432
Impurity RRT 0.935 (30° C./65% RH 3M): 0.432
Impurity RRT 1.045 (30° C./65% RH 3M): 0.37
Impurity RRT 1.095 (30° C./65% RH 3M): 0.168
Impurity RRT 1.44 (30° C./65% RH 3M): 0.228
Impurity RRT 1.590 (30° C./65% RH 3M): 0.096
Impurity RRT 1.640 (30° C./65% RH 3M): 0.057
Impurity RRT 1.698 (30° C./65% RH 3M): 0.064
Total Impurity (30° C./65% RH 3M): 1.43
Water (30° C./65% RH 3M): 4.82 % W/W
Assay (30° C./65% RH 6M): 98.06 % W/W
Description (30° C./65% RH 6M): White
Highest Impurity (30° C./65% RH 6M): 0.418
Impurity RRT 0.935 (30° C./65% RH 6M): 0.418
Impurity RRT 1.045 (30° C./65% RH 6M): 0.352
Impurity RRT 1.095 (30° C./65% RH 6M): 0.134
Impurity RRT 1.449 (30° C./65% RH 6M): 0.224
Impurity RRT 1.596 (30° C./65% RH 6M): 0.095
Impurity RRT 1.640 (30° C./65% RH 6M): 0.077
Impurity RRT 1.698 (30° C./65% RH 6M): 0.052
Total Impurity (30° C./65% RH 6M): 1.352
Water (30° C./65% RH 6M): 4.87 % W/W
Assay (30° C./65% RH 9M): 97.89 % W/W
Description (30° C./65% RH 9M): White
Highest Impurity (30° C./65% RH 9M): 0.407
Impurity RRT 0.935 (30° C./65% RH 9M): 0.407
Impurity RRT 1.045 (30° C./65% RH 9M): 0.340
Impurity RRT 1.095 (30° C./65% RH 9M): 0.150
Impurity RRT 1.449 (30° C./65% RH 9M): 0.216
Impurity RRT 1.596 (30° C./65% RH 9M): 0.103
Impurity RRT 1.640 (30° C./65% RH 9M): 0.064
Impurity RRT 1.698 (30° C./65% RH 9M): 0.053
Total Impurity (30° C./65% RH 9M): 1.333
Water (30° C./65% RH 9M): 4.91 % W/W
Assay (30° C./65% RH 12M): 97.80 % W/W
Description (30° C./65% RH 12M): White
Highest Impurity (30° C./65% RH 12M): 0.424
Impurity RRT 0.935 (30° C./65% RH 12M): 0.424
Impurity RRT 1.045 (30° C./65% RH 12M): 0.363
Impurity RRT 1.095 (30° C./65% RH 12M): 0.172
Impurity RRT 1.449 (30° C./65% RH 12M): 0.197
Impurity RRT 1.596 (30° C./65% RH 12M): 0.089
Impurity RRT 1.640 (30° C./65% RH 12M): 0.064
Impurity RRT 1.698 (30° C./65% RH 12M): 0.058
Total Impurity (30° C./65% RH 12M): 1.367
Water (30° C./65% RH 12M): 5.33 % W/W
Assay (40° C./75% RH 1M): 98.23 % W/W
Description (40° C./75% RH 1M): White
Highest Impurity (40° C./75% RH 1M): 0.452
Impurity RRT 0.935 (40° C./75% RH 1M): 0.452
Impurity RRT 1.045 (40° C./75% RH 1M): 0.372
Impurity RRT 1.095 (40° C./75% RH 1M): 0.162
Impurity RRT 1.44 (40° C./75% RH 1M): 0.215
Impurity RRT 1.590 (40° C./75% RH 1M): 0.100
Impurity RRT 1.640 (40° C./75% RH 1M): 0.071
Impurity RRT 1.698 (40° C./75% RH 1M): 0.066
Total Impurity (40° C./75% RH 1M): 1.46
Water (40° C./75% RH 1M): 4.33 % W/W
Assay (40° C./75% RH 2M): 98.23 % W/W
Description (40° C./75% RH 2M): White
Highest Impurity (40° C./75% RH 2M): 0.422
Impurity RRT 0.935 (40° C./75% RH 2M): 0.422
Impurity RRT 1.045 (40° C./75% RH 2M): 0.351
Impurity RRT 1.095 (40° C./75% RH 2M): 0.169
Impurity RRT 1.18 (40° C./75% RH 2M): 0.052
Impurity RRT 1.44 (40° C./75% RH 2M): 0.219
Impurity RRT 1.590 (40° C./75% RH 2M): 0.090
Impurity RRT 1.640 (40° C./75% RH 2M): 0.066
Impurity RRT 1.698 (40° C./75% RH 2M): 0.065
Total Impurity (40° C./75% RH 2M): 1.44
Water (40° C./75% RH 2M): 4.40 % W/W
Assay (40° C./75% RH 3M): 98.2 % W/W
Description (40° C./75% RH 3M): White
Highest Impurity (40° C./75% RH 3M): 0.423
Impurity RRT 0.935 (40° C./75% RH 3M): 0.423
Impurity RRT 1.045 (40° C./75% RH 3M): 0.360
Impurity RRT 1.095 (40° C./75% RH 3M): 0.174
Impurity RRT 1.44 (40° C./75% RH 3M): 0.218
Impurity RRT 1.590 (40° C./75% RH 3M): 0.102
Impurity RRT 1.640 (40° C./75% RH 3M): 0.065
Impurity RRT 1.698 (40° C./75% RH 3M): 0.064
Total Impurity (40° C./75% RH 3M): 1.41
Water (40° C./75% RH 3M): 4.75 % W/W
Assay (40° C./75% RH 6M): 98.16 % W/W
Description (40° C./75% RH 6M): White
Highest Impurity (40° C./75% RH 6M): 0.418
Impurity RRT 0.138 (40° C./75% RH 6M): 0.107
Impurity RRT 0.935 (40° C./75% RH 6M): 0.418
Impurity RRT 1.045 (40° C./75% RH 6M): 0.347
Impurity RRT 1.095 (40° C./75% RH 6M): 0.161
Impurity RRT 1.449 (40° C./75% RH 6M): 0.187
Impurity RRT 1.596 (40° C./75% RH 6M): 0.087
Impurity RRT 1.640 (40° C./75% RH 6M): 0.050
Impurity RRT 1.698 (40° C./75% RH 6M): 0.052
Total Impurity (40° C./75% RH 6M): 1.409
Water (40° C./75% RH 6M): 5.44 % W/W
Assay (Initial): 98.43 % W/W
Description (Initial): White
Highest Impurity (Initial): 0.428
Impurity RRT 0.706 (Initial): 0.045
Impurity RRT 0.935 (Initial): 0.428
Impurity RRT 1.045 (Initial): 0.349
Impurity RRT 1.095 (Initial): 0.159
Impurity RRT 1.44 (Initial): 0.235
Impurity RRT 1.590 (Initial): 0.093
Impurity RRT 1.640 (Initial): 0.054
Impurity RRT 1.698 (Initial): 0.084
Total Impurity (Initial): 1.438
Water (Initial): 4.76 % W/W
SMILES: CC(C)c1c(C(=O)Nc2ccc(CO)cc2)c(-c2ccccc2)c(-c2ccc(F)cc2)n1CC[C@@H](O)C[C@@H](O)CC(=O)[O-].CC(C)c1c(C(=O)Nc2ccc(CO)cc2)c(-c2ccccc2)c(-c2ccc(F)cc2)n1CC[C@@H](O)C[C@@H](O)CC(=O)[O-].[Ca+2] [Form I, (3R,5)-7-[2-(4-fluorophenyl)-5-isopropyl-3-phenyl-4-[(4-hydroxymethylphenylamino)carbonyl]-pyrrol-1-yl]-3,5-dihydroxy-heptanoic acid, hemi calcium salt]
